Data reported in patent US10323031B2, “Pesticidally active tetracyclic derivatives with sulfur containing substituents” (Syngenta Participations AG, priority 2015, dated 2019).

Key:
Assay type in all cases: in vivo
[1] = tested on: Diabrotica Balteata (Corn root worm); experiment: Diabrotica balteata larvae on maize sprouts (Example B2); settings: 96 h, application rate of 200 ppm, L2 larvae, 4 days after infestation, read-out: effect in at least one of the two categories (mortality or growth inhibition)
Protocol: Diabrotica Balteata (Corn root worm)
Maize sprouts placed onto an agar layer in 24-well microtiter plates were treated with aqueous test solutions prepared from 10,000 ppm DMSO stock solutions by spraying. After drying, the plates were infested with L2 larvae (6 to 10 per well). The samples were assessed for mortality and growth inhibition in comparison to untreated samples 4 days after infestation.

[2] = tested on: Plutella xylostella (Diamond Back Moth); experiment: Plutella xylostella larvae on artificial diet (Example B7); settings: 120 h, application rate of 200 ppm, L2 larvae, 5 days after infestation, read-out: effect in at least one of the two categories (mortality or growth inhibition)
Protocol: Plutella xylostella (Diamond Back Moth)
24-well microtiter plates with artificial diet were treated with aqueous test solutions prepared from 10,000 ppm DMSO stock solutions by pipetting. After drying, the plates were infested with L2 larvae (10 to 15 per well). The samples were assessed for mortality and growth inhibition in comparison to untreated samples 5 days after infestation.

[3] = tested on: Spodoptera littoralis (Egyptian Cotton Leaf Worm); experiment: Spodoptera littoralis on sprayed cotton leaf discs (Example B8); settings: foliar, 72 h, application rate of 200 ppm, L1 larvae, 3 days after infestation, read-out: control (mortality, anti-feeding effect, growth inhibition)
Protocol: (§1) Spodoptera littoralis (Egyptian Cotton Leaf Worm)
Cotton leaf discs were placed onto agar in 24-well microtiter plates and sprayed with aqueous test solutions prepared from 10,000 ppm DMSO stock solutions. After drying the leaf discs were infested with five L1 larvae. The samples were assessed for mortality, anti-feeding effect, and growth inhibition in comparison to untreated samples 3 days after infestation. Control of Spodoptera littoralis by a test sample is given when at least one of the categories mortality, anti-feedant effect, and growth inhibition is higher than the untreated sample.

[4] = tested on: Euschistus heros (Neotropical Brown Stink Bug); experiment: Euschistus heros nymphs on soybean leaves (Example B3); settings: 120 h, application rate of 200 ppm, N2 nymphs, 5 days after infestation, read-out: effect in at least one of the two categories (mortality or growth inhibition)
Protocol: Euschistus heros (Neotropical Brown Stink Bug)
Soybean leaves on agar in 24-well microtiter plates were sprayed with aqueous test solutions prepared from 10,000 ppm DMSO stock solutions. After drying the leaves were infested with N2 nymphs. The samples were assessed for mortality and growth inhibition in comparison to untreated samples 5 days after infestation.

[5] = tested on: Tetranychus urticae (Two-spotted Spider Mite); experiment: Tetranychus urticae feeding/contact activity (Example B10); settings: foliar, 192 h
Protocol: Tetranychus urticae (Two-spotted Spider Mite): Feeding/Contact Activity
Bean leaf discs on agar in 24-well microtiter plates were sprayed with aqueous test solutions prepared from 10,000 ppm DMSO stock solutions. After drying the leaf discs were infested with a mite population of mixed ages. The samples were assessed for mortality on mixed population (mobile stages) 8 days after infestation.

[6] = tested on: Spodoptera littoralis (Egyptian Cotton Leaf Worm); experiment: Spodoptera littoralis, uptake by lettuce roots from agar (Example B9); settings: 144 h, test rate of 12.5 ppm, lettuce grown on treated agar, eggs, 6 days after infestation, read-out: effect in at least one of the three categories (mortality, anti-feeding, or growth inhibition)
Description: as §1
Test compounds were applied by pipette from 10,000 ppm DMSO stock solutions into 24-well plates and mixed with agar. Lettuce seeds were placed onto the agar and the multi well plate was closed by another plate which contained also agar. After 7 days the compound was absorbed by the roots and the lettuce grew into the lid plate. The lettuce leaves were then cut off into the lid plate. Spodoptera eggs were pipetted through a plastic stencil onto a humid gel blotting paper and the lid plate was closed with it. The samples were assessed for mortality, anti-feedant effect and growth inhibition in comparison to untreated samples 6 days after infestation.

[7] = tested on: Myzus persicae (Green Peach Aphid); experiment: Myzus persicae feeding/contact activity (Example B5); settings: foliar, 144 h, application rate of 200 ppm, sunflower leaf discs, aphid population of mixed ages, 6 days after infestation
Protocol: Myzus persicae (Green Peach Aphid): Feeding/Contact Activity
Sunflower leaf discs were placed onto agar in a 24-well microtiter plate and sprayed with aqueous test solutions prepared from 10,000 ppm DMSO stock solutions. After drying, the leaf discs were infested with an aphid population of mixed ages. The samples were assessed for mortality 6 days after infestation.

[8] = tested on: Frankliniella occidentalis (Western Flower Thrips); experiment: Frankliniella occidentalis feeding/contact activity (Example B4); settings: foliar, 168 h, application rate of 200 ppm, sunflower leaf discs, population of mixed ages, 7 days after infestation
Protocol: Frankliniella occidentalis (Western Flower Thrips): Feeding/Contact Activity
Sunflower leaf discs were placed on agar in 24-well microtiter plates and sprayed with aqueous test solutions prepared from 10,000 DMSO stock solutions. After drying the leaf discs were infested with a Frankliniella population of mixed ages. The samples were assessed for mortality 7 days after infestation.

[9] = tested on: Bemisia Tabaci (Cotton White Fly); experiment: Bemisia tabaci feeding/contact activity (Example B1); settings: foliar, 144 h, application rate of 200 ppm, cotton leaf discs, adult white flies, 6 days after incubation
Protocol: Bemisia Tabaci (Cotton White Fly): Feeding/Contact Activity
Cotton leaf discs were placed on agar in 24-well microtiter plates and sprayed with aqueous test solutions prepared from 10,000 ppm DMSO stock solutions. After drying the leaf discs were infested with adult white flies. The samples were checked for mortality 6 days after incubation.

[10] = tested on: Myzus persicae (Green Peach Aphid); experiment: Myzus persicae systemic activity (Example B6); settings: 144 h, test rate of 24 ppm, roots of pea seedlings in test solution, 6 days
Protocol: Myzus persicae (Green Peach Aphid): Systemic Activity
Roots of pea seedlings infested with an aphid population of mixed ages were placed directly into aqueous test solutions prepared from 10,000 DMSO stock solutions. The samples were assessed for mortality 6 days after placing seedlings into test solutions.

CCSc1cc2ccccc2cc1-c1nc2cc(C(F)(F)F)n(CC)c(=O)c2n1C [Compound A1, 5-ethyl-2-(3-ethylsulfanyl-2-naphthyl)-3-methyl-6-(trifluoromethyl)-3aH-imidazo[4,5-c]pyrid in-4-one]
≥ 80%: percent effect (mortality or growth inhibition) at 200 ppm [1] | percent effect (mortality or growth inhibition) at 200 ppm [2] | mortality at 200 ppm [3] | percent effect (mortality or growth inhibition) at 200 ppm [4]

CCn1c(C(F)(F)F)cc2nc(-c3cc4ccccc4cc3S(=O)(=O)CC)n(C)c2c1=O [Compound A2, 5-ethyl-2-(3-ethylsulfonyl-2-naphthyl)-3-methyl-6-(trifluoromethyl)-6H-im idazo[4,5-c]pyridin-4-one]
≥ 80%: mortality at 200 ppm [5] | percent effect (mortality, anti-feeding or growth inhibition) at 12.5 ppm [6] | percent effect (mortality or growth inhibition) at 200 ppm [1] | percent effect (mortality or growth inhibition) at 200 ppm [2] | mortality at 200 ppm [3] | mortality at 200 ppm [7] | mortality at 200 ppm [8] | percent effect (mortality or growth inhibition) at 200 ppm [4]

CCSc1cc2ccccc2nc1-c1nc2cc(C(F)(F)F)n(CC)c(=O)c2n1C [Compound A3, 5-ethyl-2-(3-ethylsulfanyl-2-quinolyl)-3-methyl-6-(trifluoromethyl)-3aH-imidazo[4,5-c]pyridin-4-one]
≥ 80%: percent effect (mortality or growth inhibition) at 200 ppm [1] | percent effect (mortality or growth inhibition) at 200 ppm [2] | mortality at 200 ppm [3] | mortality at 200 ppm [7]

CCSc1cc2c(cc1-c1nc3cc(C(F)(F)F)n(CC)c(=O)c3n1C)nc(C(F)(F)F)n2C [Compound A5, 5-ethyl-2-[6-ethylsulfanyl-1-methyl-2-(trifluoromethyl)benzimidazol-5-yl]-3-methyl-6-(trifluoromethyl)imidazo[4,5-c]pyridin-4-one]
≥ 80%: mortality at 200 ppm [3] | percent effect (mortality or growth inhibition) at 200 ppm [4]

CCn1c(C(F)(F)F)cc2nc(-c3cc4nc(C(F)(F)F)n(C)c4cc3S(=O)(=O)CC)n(C)c2c1=O [Compound A6, 5-ethyl-2-[6-ethylsulfonyl-1-methyl-2-(trifluoromethyl)benzimidazol-5-yl]-3-methyl-6-(trifluoromethyl)imidazo[4,5-c]pyridin-4-one]
≥ 80%: percent effect (mortality, anti-feeding or growth inhibition) at 12.5 ppm [6] | percent effect (mortality or growth inhibition) at 200 ppm [2] | mortality at 200 ppm [3] | mortality at 200 ppm [7] | mortality at 200 ppm [9] | mortality at 24 ppm [10] | mortality at 200 ppm [8] | percent effect (mortality or growth inhibition) at 200 ppm [4]

CCn1c(C(F)(F)F)cc2nc(-c3cc4ccncc4cc3S(=O)(=O)CC)n(C)c2c1=O [Compound A8, 5-ethyl-2-(7-ethylsulfonyl-6-isoquinolyl)-3-methyl-6-(trifluoromethyl)imidazo[4,5-c]pyridin-4-one]
≥ 80%: percent effect (mortality or growth inhibition) at 200 ppm [1] | percent effect (mortality or growth inhibition) at 200 ppm [2] | mortality at 200 ppm [3] | percent effect (mortality or growth inhibition) at 200 ppm [4]

CCn1c(C(F)(F)F)cc2nc(-c3cc4cc[n+]([O-])cc4cc3S(=O)(=O)CC)n(C)c2c1=O [Compound A9, 5-ethyl-2-(7-ethylsulfonyl-2-oxido-isoquinolin-2-ium-6-yl)-3-methyl-6-(trifluoromethyl)imidazo[4,5-c]pyridin-4-one]
≥ 80%: percent effect (mortality or growth inhibition) at 200 ppm [2] | mortality at 200 ppm [3] | mortality at 24 ppm [10]
